Source: PubChem BioAssay AID1963426 (Molecular Pharmacology Branch, DTP, NCI, 2024)
Values belong to the molecule of their own block, whether it stands above or below them.

System: 186277-243-T-J2-PDC complex spheroid growth, % test/control
Assay: Anticancer human tumor 186277-243-T-J2-PDC patient-derived colon adenocarcinoma cell line growth inhibition [Asc]
Conditions: for IC50: curve of first compound; for viability, T/C: stronger effect = lower value
In short: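 Tumor cells were grown as complex spheroids with human endothelial cells (HUVEC) and human mesenchymal stem cells as stroma. Agents were tested alone and in combination, in half-log steps down from the clinical Cmax, or from 10 microM where Cmax was unknown.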

[1] = second compound 0.1 µM, first compound 0.0316 µM
[2] = second compound 0.1 µM, first compound 0.1 µM
[3] = second compound 0.316 µM, first compound 0.0316 µM
[4] = second compound 0.316 µM, first compound 0.1 µM
[5] = second compound 1 µM, first compound 0.0316 µM
[6] = second compound 1 µM, first compound 0.1 µM
[7] = second compound 3.16 µM, first compound 0.0316 µM
[8] = second compound 3.16 µM, first compound 0.1 µM
[9] = second compound 10 µM, first compound 0.0316 µM
[10] = second compound 10 µM, first compound 0.1 µM
[11] = second compound 0.1 µM, first compound 0.316 µM
[12] = second compound 0.1 µM, first compound 1 µM
[13] = second compound 0.1 µM, first compound 3.16 µM
[14] = second compound 0.1 µM, first compound 10 µM
[15] = second compound 0.316 µM, first compound 0.316 µM
[16] = second compound 0.316 µM, first compound 1 µM
[17] = second compound 0.316 µM, first compound 3.16 µM
[18] = second compound 0.316 µM, first compound 10 µM
[19] = second compound 1 µM, first compound 0.316 µM
[20] = second compound 1 µM, first compound 1 µM
[21] = second compound 1 µM, first compound 3.16 µM
[22] = second compound 1 µM, first compound 10 µM
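Also: spheroids exposed to agents for 7 days.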
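For viability, T/C in this document: 100% = DMSO vehicle control wells.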

IC50 (second compound 0.1 µM): > 0.1 µM
IC50 (second compound 0.316 µM): > 0.1 µM
IC50 (second compound 1 µM): > 0.1 µM
IC50 (second compound 3.16 µM): > 0.1 µM
IC50 (second compound 10 µM): > 0.1 µM
Structure (SMILES): NC1CCC(NC2CC2c2ccccc2)CC1 (stereo not given) + Cc1c(S(C)(=O)=O)c(-c2cc(F)cc(N3CCN(c4ccc(NS(=O)(=O)c5ccc(NC(CCN6CCC(C(=O)OCCCP(=O)(O)O)CC6)CSc6ccccc6)c(S(=O)(=O)C(F)(F)F)c5)cc4)CC3)c2)c(-c2ccc(Cl)cc2)n1C(C)C
viability, T/C (second compound 0.1 µM, first compound 0.000316 µM): 102%
viability, T/C (second compound 0.1 µM, first compound 0.001 µM): 102%
viability, T/C (second compound 0.1 µM, first compound 0.00316 µM): 96.9%
viability, T/C (second compound 0.1 µM, first compound 0.01 µM): 94.8%
viability, T/C [1]: 94.4%
viability, T/C [2]: 91.3%
viability, T/C (second compound 0.316 µM, first compound 0.000316 µM): 124%
viability, T/C (second compound 0.316 µM, first compound 0.001 µM): 94.3%
viability, T/C (second compound 0.316 µM, first compound 0.00316 µM): 111%
viability, T/C (second compound 0.316 µM, first compound 0.01 µM): 104%
viability, T/C [3]: 89.9%
viability, T/C [4]: 78.1%
viability, T/C (second compound 1 µM, first compound 0.000316 µM): 99.8%
viability, T/C (second compound 1 µM, first compound 0.001 µM): 103%
viability, T/C (second compound 1 µM, first compound 0.00316 µM): 113%
viability, T/C (second compound 1 µM, first compound 0.01 µM): 93%
viability, T/C [5]: 96.7%
viability, T/C [6]: 89%
viability, T/C (second compound 3.16 µM, first compound 0.000316 µM): 103%
viability, T/C (second compound 3.16 µM, first compound 0.001 µM): 104%
viability, T/C (second compound 3.16 µM, first compound 0.00316 µM): 100%
viability, T/C (second compound 3.16 µM, first compound 0.01 µM): 92.1%
viability, T/C [7]: 95.6%
viability, T/C [8]: 91.3%
viability, T/C (second compound 10 µM, first compound 0.000316 µM): 98.3%
viability, T/C (second compound 10 µM, first compound 0.001 µM): 101%
viability, T/C (second compound 10 µM, first compound 0.00316 µM): 97.8%
viability, T/C (second compound 10 µM, first compound 0.01 µM): 92.8%
viability, T/C [9]: 97.8%
viability, T/C [10]: 98%

IC50 (second compound 0.01 µM): 8.07 µM
IC50 (second compound 0.0316 µM): 7.28 µM
IC50 (second compound 0.1 µM): 6.66 µM
IC50 (second compound 0.316 µM): 6.86 µM
IC50 (second compound 1 µM): 6.26 µM
Structure (SMILES): C=C(F)C(=O)N1CCN(c2nc(OCC3CCCN3C)nc3c2CCN(c2cccc4cccc(Cl)c24)C3)CC1CC#N (stereo not given) + CNC(C)C(=O)NC1CN(S(=O)(=O)c2cccc(S(=O)(=O)N3CCC4CCC(C(=O)NC(c5ccccc5)c5ccccc5)N4C(=O)C(NC(=O)C(C)NC)C3)c2)CCC2CCC(C(=O)NC(c3ccccc3)c3ccccc3)N2C1=O
viability, T/C (second compound 0.01 µM, first compound 0.0316 µM): 133%
viability, T/C (second compound 0.01 µM, first compound 0.1 µM): 122%
viability, T/C (second compound 0.01 µM, first compound 0.316 µM): 117%
viability, T/C (second compound 0.01 µM, first compound 1 µM): 112%
viability, T/C (second compound 0.01 µM, first compound 3.16 µM): 121%
viability, T/C (second compound 0.01 µM, first compound 10 µM): 33.9%
viability, T/C (second compound 0.0316 µM, first compound 0.0316 µM): 108%
viability, T/C (second compound 0.0316 µM, first compound 0.1 µM): 109%
viability, T/C (second compound 0.0316 µM, first compound 0.316 µM): 99.2%
viability, T/C (second compound 0.0316 µM, first compound 1 µM): 102%
viability, T/C (second compound 0.0316 µM, first compound 3.16 µM): 117%
viability, T/C (second compound 0.0316 µM, first compound 10 µM): 28.2%
viability, T/C [1]: 108%
viability, T/C [2]: 109%
viability, T/C [11]: 120%
viability, T/C [12]: 119%
viability, T/C [13]: 131%
viability, T/C [14]: 13.1%
viability, T/C [3]: 127%
viability, T/C [4]: 120%
viability, T/C [15]: 104%
viability, T/C [16]: 118%
viability, T/C [17]: 132%
viability, T/C [18]: 15.8%
viability, T/C [5]: 113%
viability, T/C [6]: 102%
viability, T/C [19]: 117%
viability, T/C [20]: 108%
viability, T/C [21]: 118%
viability, T/C [22]: 7.88%

IC50 (second compound 0.1 µM): 0.108 µM
IC50 (second compound 0.316 µM): 0.0842 µM
IC50 (second compound 1 µM): 0.0657 µM
IC50 (second compound 3.16 µM): 0.0568 µM
IC50 (second compound 10 µM): 0.0554 µM
Structure (SMILES): NC(=O)C(=Cn1cnc(-c2cc(C(F)(F)F)cc(C(F)(F)F)c2)n1)c1cncnc1 + Cc1c(S(C)(=O)=O)c(-c2cc(F)cc(N3CCN(c4ccc(NS(=O)(=O)c5ccc(NC(CCN6CCC(C(=O)OCCCP(=O)(O)O)CC6)CSc6ccccc6)c(S(=O)(=O)C(F)(F)F)c5)cc4)CC3)c2)c(-c2ccc(Cl)cc2)n1C(C)C
viability, T/C (second compound 0.1 µM, first compound 0.000949 µM): 109%
viability, T/C (second compound 0.1 µM, first compound 0.003 µM): 99.3%
viability, T/C (second compound 0.1 µM, first compound 0.00949 µM): 113%
viability, T/C (second compound 0.1 µM, first compound 0.03 µM): 90.8%
viability, T/C (second compound 0.1 µM, first compound 0.0949 µM): 56.2%
viability, T/C (second compound 0.1 µM, first compound 0.3 µM): 6.16%
viability, T/C (second compound 0.316 µM, first compound 0.000949 µM): 96.3%
viability, T/C (second compound 0.316 µM, first compound 0.003 µM): 99%
viability, T/C (second compound 0.316 µM, first compound 0.00949 µM): 89.5%
viability, T/C (second compound 0.316 µM, first compound 0.03 µM): 94.9%
viability, T/C (second compound 0.316 µM, first compound 0.0949 µM): 44.8%
viability, T/C (second compound 0.316 µM, first compound 0.3 µM): 4.07%
viability, T/C (second compound 1 µM, first compound 0.000949 µM): 96.8%
viability, T/C (second compound 1 µM, first compound 0.003 µM): 101%
viability, T/C (second compound 1 µM, first compound 0.00949 µM): 101%
viability, T/C (second compound 1 µM, first compound 0.03 µM): 98.2%
viability, T/C (second compound 1 µM, first compound 0.0949 µM): 27.4%
viability, T/C (second compound 1 µM, first compound 0.3 µM): 1.75%
viability, T/C (second compound 3.16 µM, first compound 0.000949 µM): 110%
viability, T/C (second compound 3.16 µM, first compound 0.003 µM): 99.4%
viability, T/C (second compound 3.16 µM, first compound 0.00949 µM): 101%
viability, T/C (second compound 3.16 µM, first compound 0.03 µM): 95.8%
viability, T/C (second compound 3.16 µM, first compound 0.0949 µM): 13.2%
viability, T/C (second compound 3.16 µM, first compound 0.3 µM): 0.68%
viability, T/C (second compound 10 µM, first compound 0.000949 µM): 92%
viability, T/C (second compound 10 µM, first compound 0.003 µM): 92.4%
viability, T/C (second compound 10 µM, first compound 0.00949 µM): 92.5%
viability, T/C (second compound 10 µM, first compound 0.03 µM): 91.7%
viability, T/C (second compound 10 µM, first compound 0.0949 µM): 13.4%
viability, T/C (second compound 10 µM, first compound 0.3 µM): 0.55%

IC50 (second compound 0.1 µM): > 10 µM
IC50 (second compound 0.316 µM): > 10 µM
IC50 (second compound 1 µM): > 10 µM
IC50 (second compound 3.16 µM): > 10 µM
IC50 (second compound 10 µM): > 10 µM
Structure (SMILES): C=CC(=O)N1CCN(c2nc(=O)n(-c3c(C)ccnc3C(C)C)c3nc(-c4c(O)cccc4F)c(F)cc23)C(C)C1 (stereo not given) + Cc1c(S(C)(=O)=O)c(-c2cc(F)cc(N3CCN(c4ccc(NS(=O)(=O)c5ccc(NC(CCN6CCC(C(=O)OCCCP(=O)(O)O)CC6)CSc6ccccc6)c(S(=O)(=O)C(F)(F)F)c5)cc4)CC3)c2)c(-c2ccc(Cl)cc2)n1C(C)C
viability, T/C [1]: 120%
viability, T/C [2]: 105%
viability, T/C [11]: 105%
viability, T/C [12]: 108%
viability, T/C [13]: 116%
viability, T/C [14]: 113%
viability, T/C [3]: 111%
viability, T/C [4]: 104%
viability, T/C [15]: 104%
viability, T/C [16]: 104%
viability, T/C [17]: 119%
viability, T/C [18]: 116%
viability, T/C [5]: 128%
viability, T/C [6]: 115%
viability, T/C [19]: 100%
viability, T/C [20]: 116%
viability, T/C [21]: 119%
viability, T/C [22]: 119%
viability, T/C [7]: 105%
viability, T/C [8]: 123%
viability, T/C (second compound 3.16 µM, first compound 0.316 µM): 115%
viability, T/C (second compound 3.16 µM, first compound 1 µM): 111%
viability, T/C (second compound 3.16 µM, first compound 3.16 µM): 116%
viability, T/C (second compound 3.16 µM, first compound 10 µM): 116%
viability, T/C [9]: 102%
viability, T/C [10]: 109%
viability, T/C (second compound 10 µM, first compound 0.316 µM): 102%
viability, T/C (second compound 10 µM, first compound 1 µM): 119%
viability, T/C (second compound 10 µM, first compound 3.16 µM): 104%
viability, T/C (second compound 10 µM, first compound 10 µM): 110%
